# Laboratory results: PMC6858373 (Scientific Reports, 2019)
# Where two headings read alike, the source gives them in different places.
# Key:
# [1] = biological target: T1, FGF14:Nav1.6 C-tail complex (Homo sapiens, UniProt Q92915+Q9UQD0); assay: Split-luciferase complementation assay (LCA) in Clone V double stable HEK293 cells; format: cell-based; conditions: for Split Luciferase Assay % Lum Set 1 / Split Luciferase Assay Z-score Set 1: biological replicate Set 1; for Split Luciferase Assay % Lum Set 1 / Split Luciferase Assay %Lum Set 2: normalized to on-plate 0.3% DMSO controls (n=16 per plate); for Split Luciferase Assay %Lum Set 2 / Split Luciferase Assay Z-score Set 2: biological replicate Set 2; for Split Luciferase Assay Z-score Set 1 / Split Luciferase Assay Z-score Set 2: normalized to on-plate 0.3% DMSO controls; for Split Luciferase Assay %Lum Avg: average of Set 1 and Set 2, normalized to 0.3% DMSO controls
# T1 construct: polymerase chain reaction (PCR) amplification of the FGF14 open reading frame (nt 1–855); C-terminal fragment of Nav1.6 (amino acids 1763–1976) fused with CD4ΔC-tail (amino acids 1–395); expressed in transfected cells
# T1 sequence (Q92915 1-252 isoform Q92915-2): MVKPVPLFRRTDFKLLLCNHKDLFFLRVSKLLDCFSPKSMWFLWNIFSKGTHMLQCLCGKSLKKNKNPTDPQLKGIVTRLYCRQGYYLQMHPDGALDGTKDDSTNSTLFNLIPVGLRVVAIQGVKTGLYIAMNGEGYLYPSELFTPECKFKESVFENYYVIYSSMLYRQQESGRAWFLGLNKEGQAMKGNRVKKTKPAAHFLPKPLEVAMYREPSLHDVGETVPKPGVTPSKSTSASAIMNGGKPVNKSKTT
# T1 sequence (Q9UQD0 1763-1976 limits assumed): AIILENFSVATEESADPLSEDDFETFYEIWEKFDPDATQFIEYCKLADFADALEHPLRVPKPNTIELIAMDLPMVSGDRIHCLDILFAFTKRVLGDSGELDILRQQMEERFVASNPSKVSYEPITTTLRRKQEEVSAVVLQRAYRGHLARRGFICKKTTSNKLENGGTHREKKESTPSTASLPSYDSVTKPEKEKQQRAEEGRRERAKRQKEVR
# [2] = biological target: full-length P. pyralis luciferase (Photinus pyralis, UniProt P08659, K549A/L550V/N119G/N50D/S548I); format: cell-based
# Chain of full-length P. pyralis luciferase (P08659 whole entry N50D/N119G/S548I/K549A/L550V, looked up): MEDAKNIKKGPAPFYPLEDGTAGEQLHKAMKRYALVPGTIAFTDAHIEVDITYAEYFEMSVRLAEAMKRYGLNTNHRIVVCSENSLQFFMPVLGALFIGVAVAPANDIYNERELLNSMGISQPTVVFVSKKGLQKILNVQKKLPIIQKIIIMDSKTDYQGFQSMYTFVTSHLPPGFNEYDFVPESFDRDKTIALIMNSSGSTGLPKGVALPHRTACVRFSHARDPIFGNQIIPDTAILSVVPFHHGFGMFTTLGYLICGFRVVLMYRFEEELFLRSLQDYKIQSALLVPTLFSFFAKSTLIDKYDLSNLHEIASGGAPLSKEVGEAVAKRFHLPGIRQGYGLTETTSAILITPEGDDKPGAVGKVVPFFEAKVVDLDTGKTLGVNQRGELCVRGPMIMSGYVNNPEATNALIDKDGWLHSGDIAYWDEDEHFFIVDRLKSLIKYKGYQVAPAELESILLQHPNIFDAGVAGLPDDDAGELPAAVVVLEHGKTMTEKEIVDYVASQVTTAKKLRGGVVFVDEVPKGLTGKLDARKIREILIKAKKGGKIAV
# [3] = CC_NCI screening, LCA luminescence
# [4] = CC_NCI screening, full-length luciferase counter-screen luminescence, normalized to on-plate 0.3% DMSO controls
# [5] = CC_NCI screening, full-length luciferase counter-screen, normalized to on-plate 0.3% DMSO controls
# [6] = CC_NCI screening, normalized to on-plate 0.3% DMSO controls
Compound,"Split Luciferase Assay % Lum Set 1 [1, 3] [%]","Split Luciferase Assay %Lum Set 2 [1, 3] [%]","Split Luciferase Assay Z-score Set 1 ([1]; CC_NCI screening, LCA)","Split Luciferase Assay Z-score Set 2 ([1]; CC_NCI screening, LCA)",Split Luciferase Assay %Lum Avg ([1]; CC_NCI screening) [%],"Luciferase Assay % Lum [2, 4] [%]","Luciferase Assay Z-score [2, 5]",Toxicity Assay % Fluor (Clone V cells) [%],Toxicity Assay Z-score (Clone V cells),"Toxicity Assay % Fluor (Clone V cells; human, 16 h, 30 µM) [%]","Toxicity Assay Z-score (Clone V cells; human, 16 h, 30 µM)",further results
Cc1cccc(Nc2nc(-c3ccncc3)cs2)c1 [STF-62247],23.16,33.29,-6.21,-5.43,28.22,83.43,-2.12,98.46,-0.22,,,
CN(C)S(=O)(=O)c1ccc2c(c1)/C(=C/c1cc3c([nH]1)CCCC3)C(=O)N2 [SU 6656],128.60,106.11,2.31,0.50,117.36,101.36,0.17,,,105.95,0.83,
Cc1[nH]c(/C=C2\C(=O)Nc3ccc(S(=O)(=O)N(C)c4cccc(Cl)c4)cc32)c(C)c1C(=O)N1CCN(C)CC1 [SU 11274],81.86,81.14,-1.47,-1.53,81.50,85.15,-1.90,,,97.70,-0.32,
CCN(CC)CCNC(=O)c1c(C)[nH]c(/C=C2\C(=O)Nc3ccc(F)cc32)c1C [SUNITINIB],80.77,74.90,-1.55,-2.04,77.84,,,93.10,,,,Luciferase Assay % Lum [2]: 90.75%; Luciferase Assay Z-score [2]: -1.18
"CN[C@@H]1C[C@H]2O[C@@](C)([C@@H]1OC)n1c3ccccc3c3c4c(c5c6ccccc6n2c5c31)C(=O)NC4 [Staurosporine, reference compound]",23.16,14.56,-6.21,-6.95,18.86,101.58,0.20,,,,,"Z-score (LCA primary screening) ([1]; 30 µM, 384-well, average of primary screening (n = 2), vs on-plate 0.3% DMSO): −6.58; IMin (% Luminescence) ([1]; antagonists, Clone V cells, 384-well, normalized to DMSO): 18.86 % Luminescence; Toxicity Assay % Fluor (Clone V cells; human): 82.83%; Toxicity Assay Z-score (Clone V cells; human): -2.40"
CO[C@H]1C[C@@H]2CC[C@@H](C)[C@@](O)(O2)C(=O)C(=O)N2CCCC[C@H]2C(=O)O[C@H]([C@H](C)C[C@@H]2CC[C@@H](OC(=O)C(C)(CO)CO)[C@H](OC)C2)CC(=O)[C@H](C)/C=C(\C)[C@@H](O)[C@@H](OC)C(=O)[C@H](C)C[C@H](C)/C=C/C=C/C=C/1C [TEMSIROLIMUS],86.21,83.22,-1.11,-1.36,84.72,65.73,-4.39,,,87.05,-1.81,
Cc1cc(C(C)Nc2ccccc2)c2nc(N3CCOCC3)cc(=O)n2c1 (stereo not drawn) [TGX 221],,,,,,,,,,,,"Split Luciferase Assay Z-score Set 1 ([1]; CC_NCI screening): 0.82; Split Luciferase Assay % Lum Set 1 ([1]; CC_NCI screening): 110.12%; Split Luciferase Assay Z-score Set 2 ([1]; CC_NCI screening): 1.94; Split Luciferase Assay %Lum Set 2 ([1]; CC_NCI screening): 123.80%; Split Luciferase Assay %Lum Avg [1]: 116.96%; Luciferase Assay % Lum (full-length luciferase counter-screen) [2, 6]: 101.89%; Luciferase Assay Z-score (full-length luciferase counter-screen) [2, 6]: 0.24; Toxicity Assay Z-score (CTB cell viability) (Clone V cells): 2.19"
CC(/C=C/C(=O)NO)=C\[C@@H](C)C(=O)c1ccc(N(C)C)cc1 [TRICHOSTATIN A],147.09,94.67,3.81,-0.43,120.88,33.58,-8.51,97.32,-0.37,,,
CO[C@H]1C[C@@H]2CC[C@@H](C)[C@@](O)(O2)C(=O)C(=O)N2CCCC[C@H]2C(=O)O[C@H]([C@H](C)C[C@@H]2CC[C@@H](OC(=O)C(C)(CO)CO)[C@H](OC)C2)CC(=O)[C@H](C)/C=C(\C)[C@@H](O)[C@@H](OC)C(=O)[C@H](C)C[C@H](C)/C=C/C=C/C=C/1C [Temsirolimus],50.33,62.42,-4.01,-3.06,56.38,68.61,-4.02,93.12,-0.96,,,
Nc1nc2nc[nH]c2c(=S)[nH]1 [Thioguanine],93.82,110.27,-0.50,0.84,102.05,92.95,-0.90,,,96.19,-0.53,
CC(=O)Nc1cccc(-n2c(=O)n(C3CC3)c(=O)c3c(Nc4ccc(I)cc4F)n(C)c(=O)c(C)c32)c1 [Trametinib],101.43,79.06,0.12,-1.70,90.25,95.81,-0.54,,,92.79,-1.01,
COc1ccc2c(c1)CC[C@@H]1[C@@H]2CC[C@]2(C)[C@@H](NCCCCCCN3C(=O)C=CC3=O)CC[C@@H]12 [U 73122],128.60,129.00,2.31,2.36,128.80,109.98,1.28,102.60,0.36,,,
COc1cc2/c(=N/c3ccc(Br)cc3F)nc[nH]c2cc1OCC1CCN(C)CC1 [VANDETANIB],85.12,88.43,-1.20,-0.94,86.77,102.19,0.28,85.66,-2.01,,,
O=C(CCCCCCC(=O)Nc1ccccc1)NO [VORINOSTAT],,,,,,,,,,,,"Split Luciferase Assay Z-score Set 1 ([1]; CC_NCI screening): 0.47; Split Luciferase Assay % Lum Set 1 ([1]; CC_NCI screening): 105.78%; Split Luciferase Assay Z-score Set 2 ([1]; CC_NCI screening): -1.96; Split Luciferase Assay %Lum Set 2 ([1]; CC_NCI screening): 75.94%; Split Luciferase Assay %Lum Avg [1]: 90.86%; Luciferase Assay % Lum (full-length luciferase counter-screen) [2, 6]: 84.44%; Luciferase Assay Z-score (full-length luciferase counter-screen) [2, 6]: -1.99; Toxicity Assay % Fluor (CTB cell viability fluorescence) (Clone V cells): 108.87%; Toxicity Assay Z-score (CTB cell viability) (Clone V cells): 1.24"
